Source: patent US11464763B2, “Parasiticidal compositions comprising an isoxazoline active agent, methods and uses thereof” (BOEHRINGER INGELHEIM ANIMAL HEALTH USA INC., priority 2011, dated 2022)

Key:
[1] = system: Rhipicephalus (Boophilus) microplus; assay: Pour-on tick count efficacy against Rhipicephalus (Boophilus) microplus in cattle (Example 15); assay type: in vivo
Procedure: The efficacy of two pour-on formulations of the invention comprising Compound A at doses of 2.5 mg/kg and 10 mg/kg were tested against infestations of Rhipicephalus (Boophilus) microplus ticks compared with an untreated control. Five healthy head of cattle of 6 to 15 months of age weighing between 100 to 200 kg were used in each study group. Cattle in Group 1 were untreated (control). Cattle in Group 2 were treated on Day 0 with a pour-on formulation comprising Compound A at a concentration of 2.5% (w/v) in DES at a dose of 2.5 mg/kg; and cattle in Group 3 were treated on Day 0 with a pour-on formulation comprising Compound A at a concentration of 10% (w/v) in DES at a dose of 10 mg/kg. Several weeks before treatment, cattle are infested three times a week with approximately 2500 Rhipicephalus (Boophilus) microplus larvae to establish ongoing infestations. Cattle in Groups 2 and 3 were treated with the respective compositions on Day 0 by measuring the required amount of the solution into a marked disposable syringe and applying the material evenly along the mid-line of the back of each animal from the withers to the tail head.
Each animal was challenged by infestation with approximately 5000 R. microplus larvae on Days 7 and 21 and every 14 days thereafter. Ticks dropping from each animal in the previous 24 hours were collected daily and counted from Day 1 until the end of the study. Since the life cycle of the ticks from the point of infestation with larvae until engorged ticks fall off is approximately 21 days (average), the assessment of efficacy for the challenges on Days 7 and 21 and every 14 days thereafter, was done for a range of 7 or 8 days starting approximately 21 days after the challenge. The assessment of efficacy at the beginning of the study was done from day 1 until Day 21.
In addition, the ticks collected were weighed as a group to measure the impact of the treatment on the weight gain of the ticks compared to the control to assess the vitality and reproductive capability of the treated ticks. […] Tables 16A and 16B show the % efficacy of the two pour-on formulations based on the weight of the ticks collected. […] As evidenced from the tables and the figures, the pour-on formulations of the invention at both 2.5 mg/kg and 10 mg/kg provide excellent efficacy against Rhipicephalus (Boophilus) microplus ticks for an extended period of time. […] Furthermore, as shown in Tables 16A and 16B, the two pour-on compositions were extremely effective against ticks based on the weight of the ticks collected. […] The extremely long lasting efficacy above 90% for pour-on composition against Rhipicephalus (Boophilus) microplus ticks is remarkable compared with pour-on formulations known in the art.

[2] = Accelerated stability of Cmpd. A in solvents at 50° C.; assay type: physicochemical
Source text: An important aspect of the invention is to provide a multiple-use container comprising a topical composition of the invention, from which accurate single dose aliquots of the long lasting topical formulations may be administered. The formulation must remain stable with repetitive exposure to the outside environment, particularly oxygen and water. This embodiment may be particularly useful with the very long lasting formulations of the invention that require administration to an animal infrequently, such as once every 3-6 months, or similar. Some solvents such as ethers (including DMI, Transcutol® and the like) give rise to peroxides, which then yield ketones and aldehydes that may be further degraded to acids. The presence of acids may contribute to the degradation of acid hydrolysis-susceptible molecules, including isoxazoline active agents. Thus, formulation stability is particularly important for the multi-dose container application, where the formulations can be exposed to oxygen and water during multiple rounds of opening and closing. […]

O=C(CNC(=O)c1ccc(C2=NOC(c3cc(Cl)cc(C(F)(F)F)c3)(C(F)(F)F)C2)c2ccccc12)NCC(F)(F)F (stereo not shown) [Compound A, 4-[5-[3-chloro-5-(trifluoromethyl)phenyl]-4,5-dihydro-5-(trifluoromethyl)-3-isoxazolyl]-N-[2-oxo-2-[(2,2,2-trifluoroethyl)amino]ethyl]-1-naphthalanecarboxamide]
Average % Efficacy (Tick Count) ([1]; Group 2: pour-on 2.5% (w/v) in DES, 2.5 mg/kg, Day 1-21): 58.8%
Average % Efficacy (Tick Count) ([1]; Group 2: pour-on 2.5% (w/v) in DES, 2.5 mg/kg, Day 28-34, Challenge Day 7): 75.6%
Average % Efficacy (Tick Count) ([1]; Group 2: pour-on 2.5% (w/v) in DES, 2.5 mg/kg, Day 41-48, Challenge Day 21): 77.0%
Average % Efficacy (Tick Count) ([1]; Group 2: pour-on 2.5% (w/v) in DES, 2.5 mg/kg, Day 55-62, Challenge Day 35): 91.2%
Average % Efficacy (Tick Count) ([1]; Group 2: pour-on 2.5% (w/v) in DES, 2.5 mg/kg, Day 69-76, Challenge Day 49): 88.3%
Average % Efficacy (Tick Count) ([1]; Group 2: pour-on 2.5% (w/v) in DES, 2.5 mg/kg, Day 83-90, Challenge Day 63): 90.7%
Average % Efficacy (Tick Count) ([1]; Group 2: pour-on 2.5% (w/v) in DES, 2.5 mg/kg, Day 97-104, Challenge Day 77): 79.8%
Average % Efficacy (Tick Count) ([1]; Group 2: pour-on 2.5% (w/v) in DES, 2.5 mg/kg, Day 111-118, Challenge Day 91): 79.0%
Average % Efficacy (Tick Count) ([1]; Group 2: pour-on 2.5% (w/v) in DES, 2.5 mg/kg, Day 132-139, Challenge Day 112): 86.2%
Average % Efficacy (Tick Count) ([1]; Group 2: pour-on 2.5% (w/v) in DES, 2.5 mg/kg, Day 146-153, Challenge Day 126): 30.3%
Average % Efficacy (Tick Count) ([1]; Group 2: pour-on 2.5% (w/v) in DES, 2.5 mg/kg, Day 160-167, Challenge Day 140): 74.0%
Average % Efficacy (Tick Count) ([1]; Group 3: pour-on 10% (w/v) in DES, 10 mg/kg, Day 1-21): 78.1%
Average % Efficacy (Tick Count) ([1]; Group 3: pour-on 10% (w/v) in DES, 10 mg/kg, Day 28-34, Challenge Day 7): 92.0%
Average % Efficacy (Tick Count) ([1]; Group 3: pour-on 10% (w/v) in DES, 10 mg/kg, Day 41-48, Challenge Day 21): 98.0%
Average % Efficacy (Tick Count) ([1]; Group 3: pour-on 10% (w/v) in DES, 10 mg/kg, Day 55-62, Challenge Day 35): 97.8%
Average % Efficacy (Tick Count) ([1]; Group 3: pour-on 10% (w/v) in DES, 10 mg/kg, Day 69-76, Challenge Day 49): 99.3%
Average % Efficacy (Tick Count) ([1]; Group 3: pour-on 10% (w/v) in DES, 10 mg/kg, Day 83-90, Challenge Day 63): 98.9%
Average % Efficacy (Tick Count) ([1]; Group 3: pour-on 10% (w/v) in DES, 10 mg/kg, Day 97-104, Challenge Day 77): 92.4%
Average % Efficacy (Tick Count) ([1]; Group 3: pour-on 10% (w/v) in DES, 10 mg/kg, Day 111-118, Challenge Day 91): 96.6%
Average % Efficacy (Tick Count) ([1]; Group 3: pour-on 10% (w/v) in DES, 10 mg/kg, Day 132-139, Challenge Day 112): 92.4%
Average % Efficacy (Tick Count) ([1]; Group 3: pour-on 10% (w/v) in DES, 10 mg/kg, Day 146-153, Challenge Day 126): 72.4%
Average % Efficacy (Tick Count) ([1]; Group 3: pour-on 10% (w/v) in DES, 10 mg/kg, Day 160-167, Challenge Day 140): 85.8%
tick count efficacy ([1]; pour-on 2.5 mg/kg and 10 mg/kg, for at least day 139): above 90%
change in assay, accelerated stability study ([2]; 12% (w/v) solution in DMI, eleven week, 50° C., clear glass containers): no significant change in assay
stability in solvents ([2]; DES, DIPA, DMI, triacetin, GF and propylene carbonate, 50° C. in glass bottles): stable
